In patent US8323708B2, “Poultry meat and eggs comprising beneficial fatty acids” (Monsanto Technology LLC, priority 2009, dated 2012):

Columns and labels:
[1] = Laying hen study: long chain fatty acid composition of eggs; format: in vivo, laying hens
Procedure: A study was conducted to determine whether laying hens fed a diet enriched in stearidonic acid could produce eggs with elevated levels of beneficial omega-3 fatty acids including EPA and DHA. Mature laying hens […] were randomly allotted to seven dietary treatments (16 hens/treatment) and were fed diets containing the following levels of n-3 fatty acids as described in Table 28 for four weeks. Sixteen birds were given each treatment. Four birds were randomly selected out of the 16 per treatment to obtain eggs during week 4 for fatty acid composition. […] The laying hens had ad libitum access to feed and water. The composition of the diets (Table 29) and premixes (Table 30) are provided below. To help prevent oxidation of the fatty acids, 0.05% ethoxyquin (Rendox) was added to each premix. Premixes were manufactured within 3 days of arrival of ethyl esters. To limit the oxidation associated with storage, diets were manufactured once and stored in a refrigerated cooler at 4° C. during the duration of the study. Eggs collected during […] (days 22-28) were maintained under refrigerated conditions until all eggs for that week were collected. Eggs were sorted by hen and treatment. Two eggs per hen from 4 hens per treatment were taken. The two eggs were weighed individually, cracked and the shell weighed. The difference between fresh egg and shell represented liquid egg weight and served as the basis for further calculations. The liquid fraction from each of the two eggs per hen were combined in a sample cup and homogenized. Samples were analyzed for fatty acids by gas chromatography.

[2] = 21 day broiler study: long chain fatty acid composition of skinless breast meat; format: in vivo, broiler chickens; settings: day 21-42
Procedure: (§1) A 21 day study was conducted to determine whether broiler chickens fed a diet containing SDA could produce meat with elevated levels of omega-3 fatty acids including EPA and DHA.
(§2) Fifty pens of four birds per pen were used. There were 25 pens of males and 25 pens of females. Five pens of males and five pens of females were each fed one of five treatment diets from day 21 to 42 days of age. Prior to day 21 all birds were fed a standard 22% protein starter diet formulated to meet NRC (1994) nutrient requirements (shown in Table 16 as “S” diet). The feed prepared was feed as a crumble.
(§3) The test diets were prepared and fed in mash form. All broilers had ad libitum access to feed and water for the duration of the 21 day study. The composition of the diets (Table 4) and premixes (Table 5) are provided below.
(§4) To help prevent oxidation of the fatty acids, 0.05% ethoxyquin (Rendox) was added to each premix. Premixes were manufactured within 3 days of arrival of ethyl esters. To limit oxidation associated with storage, diets were manufactured once and stored in a refrigerated cooler at 4° C. during the duration of the study.
(§5) For male pens only, four out of the five pens were randomly selected. Two birds from each of these pens were randomly selected (eights birds per treatment). The right and left thigh and right and left breast from these 40 birds were bagged and labeled and frozen. The right breast and thigh samples were analyzed for shelf life stability and the left skinless breast and left boneless, skinless thigh from these same birds were analyzed for fatty acid composition.

[3] = 21 day broiler study: long chain fatty acid composition of thigh meat; format: in vivo, broiler chickens; settings: day 21-42; for ALA (C18:3n-3) / DHA (C22:6n-3) / DPA (C22:5 n-3) / EPA (C20:5n-3) / Omega 6/Omega 3 ratio / SDA (C18:4n-3) / Total omega 3's: boneless skinless thigh meat
Procedure: as §1, §2, §3, §4, §5

[4] = 42 day broiler study: fatty acid composition of breast meat; format: in vivo, broiler chickens (Ross x Ross 308)
Procedure: (§6) A 42 day study was conducted to determine whether broiler chickens fed a diet containing SDA could produce meat with elevated levels of omega-3 fatty acids as compared to chickens fed diets containing DHA and fish oil.
(§7) Fifty six pens of 25 male birds (Ross×Ross 308) per pen were used. Day old birds were obtained and immediately placed in floor pens containing (used) pine wood shavings, hanging tube feeders and nipple-waterers or plassons. Eight pens were each fed one of seven treatments for 42 days. The experiment was divided into four growth phases (0-7 days, 7-21 days, 21-35 days, and 35-42 days). The experimental diets were crumbled for the first two phases (0-21 days) and pelleted thereafter.
(§8) Diets consisted of 93% base mix (Table 10) plus 7% Test Oil Mix (Table 11). The diets supplied 3008, 3083, 3183 and 3208 kcal/kg of metabolizable energy for the pre-starter, starter, grower and finisher phases, respectively.
(§9) A randomized block design was used. Treatments were randomly assigned to pens such that each of the seven treatments was replicated 8 times (8 pens with each pen containing 25 birds).
(§10) On day 42, following a 10-hour period of feed withdrawal, 8 birds per pen (64 birds/treatment; 7 treatments; 448 birds total) were randomly selected and processed using commercial processing procedures. Carcasses were cut-up and de-boned at 4 hours postmortem. Carcass and parts yields were calculated and meat samples (breast and thigh) were collected for meat quality, fatty acid analysis, and sensory evaluation.

[5] = 42 day broiler study: fatty acid composition of thigh meat and attached skin; format: in vivo, broiler chickens (Ross x Ross 308)
Procedure: as §6, §7, §8, §9, §10

[6] = 0.27% in feed (as ethyl esters), day 0-42
[7] = thigh meat and attached skin, 0.27% in feed (as ethyl esters), day 0-42

CC/C=C\C/C=C\C/C=C\CCCCCCCC(=O)OCC [ALA, alpha-Linolenic Acid - Ethyl Esters]
accumulation of SDA or DPA in eggs ([1]; dietary enrichment of laying hens): no significant accumulation

CC/C=C\C/C=C\C/C=C\C/C=C\C/C=C\C/C=C\CCC(=O)OCC [DHA Ethyl Ester]
ALA (C18:3n-3) ([2]; ethyl ester 0.163% of diet): 10 mg/100 g | DHA (C22:6n-3) ([2]; ethyl ester 0.163% of diet): 55.0 mg/100 g | DPA (C22:5 n-3) ([2]; ethyl ester 0.163% of diet): 10 mg/100 g | EPA (C20:5n-3) ([2]; ethyl ester 0.163% of diet): 10 mg/100 g | Omega 6/Omega 3 ratio ([2]; ethyl ester 0.163% of diet): 2.9 | Total omega 3's ([2]; ethyl ester 0.163% of diet): 85.0 mg/100 g | ALA (C18:3n-3) ([2]; ethyl ester 0.326% of diet): 10 mg/100 g | DHA (C22:6n-3) ([2]; ethyl ester 0.326% of diet): 80 mg/100 g | DPA (C22:5 n-3) ([2]; ethyl ester 0.326% of diet): 10 mg/100 g | EPA (C20:5n-3) ([2]; ethyl ester 0.326% of diet): 10 mg/100 g | Omega 6/Omega 3 ratio ([2]; ethyl ester 0.326% of diet): 1.9 | Total omega 3's ([2]; ethyl ester 0.326% of diet): 110 mg/100 g | ALA (C18:3n-3) ([3]; ethyl ester 0.163% of diet): 70 mg/100 g | DHA (C22:6n-3) ([3]; ethyl ester 0.163% of diet): 67.5 mg/100 g | DPA (C22:5 n-3) ([3]; ethyl ester 0.163% of diet): 15 mg/100 g | EPA (C20:5n-3) ([3]; ethyl ester 0.163% of diet): 10 mg/100 g | Omega 6/Omega 3 ratio ([3]; ethyl ester 0.163% of diet): 8.4 | SDA (C18:4n-3) ([3]; ethyl ester 0.163% of diet): 10 mg/100 g | Total omega 3's ([3]; ethyl ester 0.163% of diet): 172.5 mg/100 g | ALA (C18:3n-3) ([3]; ethyl ester 0.326% of diet): 75 mg/100 g | DHA (C22:6n-3) ([3]; ethyl ester 0.326% of diet): 125 mg/100 g | DPA (C22:5 n-3) ([3]; ethyl ester 0.326% of diet): 20 mg/100 g | EPA (C20:5n-3) ([3]; ethyl ester 0.326% of diet): 27.5 mg/100 g | Omega 6/Omega 3 ratio ([3]; ethyl ester 0.326% of diet): 5.7 | SDA (C18:4n-3) ([3]; ethyl ester 0.326% of diet): 10 mg/100 g | Total omega 3's ([3]; ethyl ester 0.326% of diet): 257.5 mg/100 g | total omega 3 fatty acids in thigh meat relative to breast meat ([3]; supplemented birds): 2 times | ARA C20:4n-6 [4, 6]: 3.01 % of fatty acids | C16:0 [4, 6]: 21.82 % of fatty acids | C16:1 [4, 6]: 3.09 % of fatty acids | C18:0 [4, 6]: 8.76 % of fatty acids | C18:1 [4, 6]: 30.41 % of fatty acids | C18:2 [4, 6]: 22.94 % of fatty acids | C22:4n-6 [4, 6]: 0.53 % of fatty acids | DHA (C22:6n-3) [4, 6]: 2.78 % of fatty acids | DPA (C22:5 n-3) [4, 6]: 0.48 % of fatty acids | EPA (C20:5n-3) [4, 6]: 0.16 % of fatty acids | SDA (C18:4n-3) [4, 6]: 0.59 % of fatty acids | Total C18:3 [4, 6]: 0.66 % of fatty acids | Total SDA, EPA, DPA and DHA concentrations ([4]; % of fatty acids, 0.27% in feed): 4.00% | ARA C20:4n-6 [5, 7]: 0.81 % of fatty acids | C16:0 [5, 7]: 21.71 % of fatty acids | C16:1 [5, 7]: 4.48 % of fatty acids | C18:0 [5, 7]: 6.31 % of fatty acids | C18:1 [5, 7]: 35.94 % of fatty acids | C18:2 [5, 7]: 25.99 % of fatty acids | C20:4n-3 [5, 7]: 0.03 % of fatty acids | C22:4n-6 [5, 7]: 0.16 % of fatty acids | DHA (C22:6n-3) [5, 7]: 0.73 % of fatty acids | DPA (C22:5 n-3) [5, 7]: 0.14 % of fatty acids | EPA (C20:5n-3) [5, 7]: 0.11 % of fatty acids | SDA (C18:4n-3) [5, 7]: 0.24 % of fatty acids | Total C18:3 [5, 7]: 1.03 % of fatty acids | Total SDA, EPA, DPA and DHA concentrations ([5]; thigh meat, 0.27% in feed): 1.2% | ALA (C18:3n-3) ([1]; total egg, 0.163% of diet): 40 mg/100 g | DHA (C22:6n-3) ([1]; total egg, 0.163% of diet): 177.5 mg/100 g | DPA (C22:5 n-3) ([1]; total egg, 0.163% of diet): 10 mg/100 g | Omega 6/Omega 3 ratio ([1]; total egg, 0.163% of diet): 5.7 | Total omega 3's ([1]; total egg, 0.163% of diet): 227.5 mg/100 g | ALA (C18:3n-3) ([1]; total egg, 0.326% of diet): 40 mg/100 g | DHA (C22:6n-3) ([1]; total egg, 0.326% of diet): 247.5 mg/100 g | DPA (C22:5 n-3) ([1]; total egg, 0.326% of diet): 10 mg/100 g | EPA (C20:5n-3) ([1]; total egg, 0.326% of diet): 10 mg/100 g | Omega 6/Omega 3 ratio ([1]; total egg, 0.326% of diet): 3.8 | Total omega 3's ([1]; total egg, 0.326% of diet): 307.5 mg/100 g
